Measured values: the NIST ThermoML archive (doi:10.1016/j.jct.2016.03.035)
Values joined by “and” are separate entries in the source; they are usually repeats but may differ in a detail not shown here. Equal entries are not always repeated.

Experiment: xn = mol fraction of the nth substance listed
Conditions: Gas, Buoyancy - hydrostatic balance with magnetic suspension - two sinkers

C [methane] + CCC
Conditions | mass density
273.15 K, 931.05 kPa, x1 = 0.5069 | 13.4744 kg/m3
273.15 K, 971.34 kPa, x1 = 0.5069 | 14.1245 kg/m3
273.15 K, 971.91 kPa, x1 = 0.5069 | 14.1339 kg/m3
273.15 K, 972.48 kPa, x1 = 0.5069 | 14.1428 kg/m3
273.15 K, 980.94 kPa, x1 = 0.5069 | 14.2794 kg/m3
273.15 K, 986.21 kPa, x1 = 0.5069 | 14.3656 kg/m3
273.15 K, 991.45 kPa, x1 = 0.5069 | 14.4504 kg/m3
273.15 K, 1009.5 kPa, x1 = 0.5069 | 14.7466 kg/m3 and 14.7469 kg/m3
273.15 K, 1009.6 kPa, x1 = 0.5069 | 14.7472 kg/m3
273.15 K, 1015.4 kPa, x1 = 0.5069 | 14.8425 kg/m3
273.15 K, 1015.5 kPa, x1 = 0.5069 | 14.8423 kg/m3
273.15 K, 1299.2 kPa, x1 = 0.7498 | 14.1894 kg/m3
273.15 K, 1700.4 kPa, x1 = 0.7498 | 19.0431 kg/m3 and 19.0434 kg/m3
273.15 K, 1999 kPa, x1 = 0.7498 | 22.8336 kg/m3
273.15 K, 1999.7 kPa, x1 = 0.7498 | 22.843 kg/m3
273.15 K, 2000.5 kPa, x1 = 0.7498 | 22.8522 kg/m3
273.15 K, 2295.4 kPa, x1 = 0.7498 | 26.7552 kg/m3
273.15 K, 2297.1 kPa, x1 = 0.7498 | 26.7787 kg/m3
273.15 K, 2297.8 kPa, x1 = 0.7498 | 26.7892 kg/m3
273.15 K, 2309.7 kPa, x1 = 0.7498 | 26.9494 kg/m3
273.15 K, 2310.5 kPa, x1 = 0.7498 | 26.9603 kg/m3
273.15 K, 2311.3 kPa, x1 = 0.7498 | 26.971 kg/m3
273.16 K, 500.9 kPa, x1 = 0.7498 | 5.2231 kg/m3
273.16 K, 1299.2 kPa, x1 = 0.7498 | 14.1894 kg/m3
274.02 K, 674.01 kPa, x1 = 0.2658 | 12.0842 kg/m3
274.13 K, 674.35 kPa, x1 = 0.2658 | 12.084 kg/m3
274.25 K, 674.71 kPa, x1 = 0.2658 | 12.0838 kg/m3
274.37 K, 675.08 kPa, x1 = 0.2658 | 12.0836 kg/m3
274.5 K, 675.47 kPa, x1 = 0.2658 | 12.0837 kg/m3
274.64 K, 675.87 kPa, x1 = 0.2658 | 12.0831 kg/m3
274.78 K, 676.29 kPa, x1 = 0.2658 | 12.0823 kg/m3
274.93 K, 676.74 kPa, x1 = 0.2658 | 12.0821 kg/m3
275.09 K, 677.21 kPa, x1 = 0.2658 | 12.0819 kg/m3
275.26 K, 677.71 kPa, x1 = 0.2658 | 12.0812 kg/m3
275.43 K, 678.23 kPa, x1 = 0.2658 | 12.0807 kg/m3
275.61 K, 678.78 kPa, x1 = 0.2658 | 12.0804 kg/m3
275.81 K, 679.35 kPa, x1 = 0.2658 | 12.0795 kg/m3
276.01 K, 679.96 kPa, x1 = 0.2658 | 12.0795 kg/m3
276.22 K, 680.58 kPa, x1 = 0.2658 | 12.0783 kg/m3
276.44 K, 681.24 kPa, x1 = 0.2658 | 12.0781 kg/m3
276.67 K, 681.92 kPa, x1 = 0.2658 | 12.0776 kg/m3
276.89 K, 682.58 kPa, x1 = 0.2658 | 12.0781 kg/m3
277.08 K, 683.2 kPa, x1 = 0.2658 | 12.0796 kg/m3
277.2 K, 683.7 kPa, x1 = 0.2658 | 12.0865 kg/m3
293.14 K, 149.9 kPa, x1 = 0.2658 | 2.2917 kg/m3 and 2.2913 kg/m3 and 2.2914 kg/m3
293.14 K, 205.57 kPa, x1 = 0.5069 | 2.5567 kg/m3 and 2.5566 kg/m3
293.14 K, 258.04 kPa, x1 = 0.2658 | 3.9962 kg/m3
293.14 K, 355.08 kPa, x1 = 0.2658 | 5.5657 kg/m3
293.14 K, 393.87 kPa, x1 = 0.5069 | 4.9714 kg/m3
293.14 K, 469.3 kPa, x1 = 0.2658 | 7.4654 kg/m3 and 7.465 kg/m3
293.14 K, 568.75 kPa, x1 = 0.2658 | 9.168 kg/m3 and 9.1681 kg/m3
293.14 K, 613.82 kPa, x1 = 0.5069 | 7.8848 kg/m3
293.14 K, 655.64 kPa, x1 = 0.2658 | 10.6962 kg/m3
293.14 K, 955.23 kPa, x1 = 0.2658 | 16.2976 kg/m3
293.14 K, 1006.2 kPa, x1 = 0.5069 | 13.3635 kg/m3 and 13.3634 kg/m3
293.14 K, 1056.3 kPa, x1 = 0.2658 | 18.3228 kg/m3 and 18.3227 kg/m3 and 18.3219 kg/m3
293.14 K, 1105.6 kPa, x1 = 0.2658 | 19.3403 kg/m3
293.14 K, 1105.7 kPa, x1 = 0.2658 | 19.3405 kg/m3
293.14 K, 1209.2 kPa, x1 = 0.5069 | 16.3578 kg/m3
293.14 K, 1399.6 kPa, x1 = 0.5069 | 19.2779 kg/m3
293.14 K, 1807.2 kPa, x1 = 0.5069 | 25.9505 kg/m3 and 25.9502 kg/m3
293.15 K, 205.57 kPa, x1 = 0.5069 | 2.5568 kg/m3
293.15 K, 258.04 kPa, x1 = 0.2658 | 3.9961 kg/m3 and 3.9961 kg/m3
